This data set is described as follows: Human HepG2 cell viability assay in 384 well format. The format is toxicity, cell-based. Also on record: dose 125 nL, time 70.5 hour; cytotoxicity at 70.5 h: concentration not given beside the values. To be noted: HepG2 cells, read-out: Inhibition.
In the case of `Cc1ccc(F)c(OC2(C(=O)O)CCN(C(=O)C3CCCC3)CC2)c1`, the cytotoxicity at 70.5 h was -4.91%.

Turning to `O=C1O[C@@H]2CN(C3CCOCC3)C[C@@H]2N1CCCc1ccc(F)cc1`, the cytotoxicity at 70.5 h was 14.2%.

`CC(=O)Nc1ncc(S(=O)(=O)N2CCOCC2)s1`: the cytotoxicity at 70.5 h was -1.73%.

Consider `CCC(O)(CNCc1ncc[nH]1)c1ccc(Br)cc1` (stereo not given), for which the cytotoxicity at 70.5 h is -1.16%.

For `COc1ccc(C[C@H]2CN(C3CCOCC3)CC[C@H]2OCC2CC2)cc1`, the cytotoxicity at 70.5 h was found to be 20%.

Take `CC(C)c1nn(C)c(N(C)C)c1CNC1CCc2cc(F)ccc21` (stereo not given): the cytotoxicity at 70.5 h came out at 5.83%.

Take `CC(C)(C)c1n[nH]cc1CNCC1CCN(CC(F)(F)F)C1` (stereo not given): the cytotoxicity at 70.5 h is -6.93%.

`Cn1cnnc1C1CCN(C(=O)c2cc3c(s2)CCC3)CC1`: the cytotoxicity at 70.5 h is -9.61%.

Turning to `CC(C)(C)c1ccc(C2(C(=O)NCCS(C)(=O)=O)CC2)cc1`, the cytotoxicity at 70.5 h was -6.58%.

For `NC(=O)CN1CCC(c2noc3cc(F)ccc23)CC1`, the cytotoxicity at 70.5 h is 39.4%.

As to `O=C1CCC(c2ccccc2)=NN1CN1CCCCCC1`, the cytotoxicity at 70.5 h is -14%.

As to `Cc1nc(CN2C[C@@H]3CN(c4ncccn4)C[C@@H]3C2=O)cs1`, the cytotoxicity at 70.5 h was -10.3%.

For the compound `CCCNC(=O)CNc1ccc(C(=O)N2CCCCC2C)cc1C` (stereo not given), the cytotoxicity at 70.5 h was -2.88%.

In the case of `CCc1ccc(OCCn2cccn2)cc1`, the cytotoxicity at 70.5 h is 23.9%.

For the compound `O=C(c1ccc(C2CCCO2)s1)N1Cc2ccccc2C1` (stereo not given), the cytotoxicity at 70.5 h stood at 0.527%.

As for `Cc1ccc(C(=O)N2CCCc3c(c(=O)n(C)n3C)C2)o1`, the cytotoxicity at 70.5 h came out at 11.7%.

Consider `Cc1cc(C)cc(C2(C(=O)NCC(C)CN3CCCC3=O)CC2)c1` (stereo not given), for which the cytotoxicity at 70.5 h was -8.76%.

Take `CCn1ccnc1CN1C[C@@H](CN2CCCC2)[C@@H](CO)C1`: the cytotoxicity at 70.5 h is -0.818%.

For `CN(C)c1ccc(CC(=O)N[C@@H]2CCNC[C@H]2O)cc1`, the cytotoxicity at 70.5 h was -3.58%.

Regarding `Cn1cc(C[C@H]2[C@H](N3CCOCC3)CCN2C(=O)c2ccc[nH]2)cn1`, the cytotoxicity at 70.5 h was -20.8%.

For `CC(NC(=O)Cn1cccnc1=O)c1ccc(OC(F)(F)F)cc1` (stereo not given), the cytotoxicity at 70.5 h is -8.28%.

With `CC(=O)N1CCN(C(=O)CN2CCCC2c2c(C)nn(C)c2C)CC1` (stereo not given), the cytotoxicity at 70.5 h was found to be 7.11%.

As to `c1ccc2c(c1)nc1n2[C@@H](CNCc2nccs2)COC1`, the cytotoxicity at 70.5 h was -19.6%.

Regarding `O=c1cc(CNS(=O)(=O)C2CC2)nc2n1CCCNC2`, the cytotoxicity at 70.5 h is -2.64%.

`CSCC(=O)N[C@H]1CC[C@H](Nc2nccc(-c3cccnc3)n2)C1`: the cytotoxicity at 70.5 h amounted to 16.3%.

On to `Clc1ccccc1-c1nc(CNC2CCc3ncnn3C2)cs1` (stereo not given), for which the cytotoxicity at 70.5 h was -1.51%.

Consider `CCc1nc(CCNC(=O)Nc2ccc(C(=O)NC)cc2C)cs1`, for which the cytotoxicity at 70.5 h was determined as 13.7%.

Take `Fc1cccc(-n2nc(C3CC3)nc2CCn2cnnn2)c1`: the cytotoxicity at 70.5 h is -3.9%.

For the compound `c1cnc(-c2noc(C3CN(Cc4ccc5c(c4)CCO5)C3)n2)nc1`, the cytotoxicity at 70.5 h was -2.95%.

On to `CN(C)C(=O)c1nnn(-c2ccc(Br)cc2)n1`, for which the cytotoxicity at 70.5 h is 28.4%.

For the compound `CCOC(=O)CCNC(=O)c1nc(OCC)ccc1Cl`, the cytotoxicity at 70.5 h is -3.61%.

As for `COc1cccc(N2CCN(CC(O)c3ccc(C)cc3)CC2)c1` (stereo not given), the cytotoxicity at 70.5 h was 3.16%.

As to `COCC1Cn2nnc(-c3cnn(C)c3)c2CN1Cc1ccoc1` (stereo not given), the cytotoxicity at 70.5 h was -8.84%.

As for `COc1ccc(CN2C[C@H]3C[C@H](C(=O)Nc4cccnc4)[C@@H](C2)O3)cc1`, the cytotoxicity at 70.5 h was -3.51%.

For the compound `C=Cc1cccc(CN2C[C@@H](CN(C)CC)[C@@H](CO)C2)c1`, the cytotoxicity at 70.5 h was 3.14%.

On to `Cc1cc(C(=O)N2C[C@@H]3CN(S(C)(=O)=O)CCO[C@@H]3C2)c(C)o1`, for which the cytotoxicity at 70.5 h stood at 19.5%.

Consider `Cc1nc(C)n(CC2CN(Cc3ccncc3)Cc3nccn3C2)n1` (stereo not given), for which the cytotoxicity at 70.5 h was -4.22%.

As for `CC(C)Cc1cc(CNC(=O)c2cccc3c2OCC3)no1`, the cytotoxicity at 70.5 h is -9.93%.

Consider `Cn1cc(CN2CCCC23CCN(C(=O)c2cccn2C)CC3)cn1`, for which the cytotoxicity at 70.5 h is -14.9%.

On to `CCN(CCN1CCCCCC1)C(=O)c1cnc(-c2cccnc2)nc1`, for which the cytotoxicity at 70.5 h was -2.81%.

`CCc1nc(C2CCCN2C(=O)c2cnc3n[nH]c(C)c3c2)no1` (stereo not given): the cytotoxicity at 70.5 h was -12.5%.

For `Cc1nn(C)c(C)c1C1CCCN1CCOc1ccccc1C#N` (stereo not given), the cytotoxicity at 70.5 h was found to be 1.39%.

On to `CO[C@@H]1CCN(S(=O)(=O)c2cccnc2)[C@@H]2CN(CC3CC3)C[C@@H]21`, for which the cytotoxicity at 70.5 h is -8.38%.

Consider `CC(C)NC(=O)N1CCN(CCn2cccn2)c2ncccc2C1`, for which the cytotoxicity at 70.5 h was -2.7%.

Turning to `COCCNS(=O)(=O)c1c(C)sc2ccccc12`, the cytotoxicity at 70.5 h was -4.03%.

Regarding `CCn1nc(CC(C)C)cc1C(=O)NCc1c(C)cc(C)nc1OC`, the cytotoxicity at 70.5 h was 2.04%.

As for `CCO[C@H]1C[C@@H](O)C12CCN(C(=O)CC(F)(F)F)CC2`, the cytotoxicity at 70.5 h is -7.18%.

Turning to `CCN(CC1CCOCC1)C(=O)Cn1cccc(C(F)(F)F)c1=O`, the cytotoxicity at 70.5 h is -7.19%.

In the case of `Cn1cccc1C(=O)NCc1cn2c(n1)CN(Cc1ccccn1)CC2`, the cytotoxicity at 70.5 h is -13.2%.

`CC(=O)N[C@@H]1CN(C(=O)c2csc(C(C)C)n2)C[C@H]1C(C)C`: the cytotoxicity at 70.5 h was -7.11%.

As for `Cn1cc(C(=O)N[C@@H]2CN(Cc3ccc(F)cc3)[C@@H]3CCCO[C@@H]32)cn1`, the cytotoxicity at 70.5 h was -4.56%.

Turning to `Cc1nn(C(C)(C)C)c(=O)n1CC(=O)NC(C)(C)C`, the cytotoxicity at 70.5 h turned out to be 10.6%.

With `O=C(c1ccncc1)N1CCC2(COc3ncccc3S(=O)(=O)N2)C1` (stereo not given), the cytotoxicity at 70.5 h was -5.87%.

Turning to `CCC1CN(c2cnn(C)c(=O)c2Cl)CCO1` (stereo not given), the cytotoxicity at 70.5 h is 5.82%.

As for `CCNC(=O)NCCCn1nc2ccccn2c1=O`, the cytotoxicity at 70.5 h is -9.28%.

On to `Cc1cnc(Nc2cccc(C3CCCN3C(=O)CO)n2)s1` (stereo not given), for which the cytotoxicity at 70.5 h was -6.4%.

For the compound `CN(C)Cc1ccccc1Cn1cncc1-c1cnn(C)c1`, the cytotoxicity at 70.5 h was -3.97%.

`Cc1cccc(CN2CCn3cc(Cn4cccn4)nc3C2)n1`: the cytotoxicity at 70.5 h is -12.9%.

For `CC(NC(=O)NCCCN(C)S(C)(=O)=O)c1ccc(C#N)cc1` (stereo not given), the cytotoxicity at 70.5 h was -4.16%.

As for `Cc1ccc(CC(=O)N2CCc3nnc(N(C)C)cc3C2)s1`, the cytotoxicity at 70.5 h was -4.06%.

Regarding `CN(C)c1cc(CNC(=O)Nc2ccc(F)cc2)ccn1`, the cytotoxicity at 70.5 h was 12.6%.

Take `O=C(NCCNc1ccc(C(F)(F)F)cn1)c1ccc(Cl)cc1F`: the cytotoxicity at 70.5 h was found to be 1.38%.

Regarding `Cn1cc(C(=O)N2CCCC2c2ccc3c(c2)OCCO3)ccc1=O` (stereo not given), the cytotoxicity at 70.5 h is -4.05%.

Turning to `CSc1ccc(C2CC(=O)Nc3c2c(=O)[nH]c2ncnn32)cc1` (stereo not given), the cytotoxicity at 70.5 h was 6.12%.

Take `Cc1cccc2cc(C(=O)N3CCC(F)(F)CC3)n(C)c12`: the cytotoxicity at 70.5 h came out at 32.7%.

Regarding `CN(CCCOc1ccccc1Cl)C(=O)CN1C[C@@H]2CC[C@H](CC1=O)N2`, the cytotoxicity at 70.5 h was -2.68%.

As to `O=S(=O)(Cc1ccc(F)cc1)NCc1ccco1`, the cytotoxicity at 70.5 h was -2.47%.

Regarding `O=C(CCc1nccs1)N1CCN(c2ccccn2)CC1`, the cytotoxicity at 70.5 h came out at 8.13%.

Take `COCCN1CCC(CN(CC2CCCO2)C(=O)CCC(F)(F)F)CC1` (stereo not given): the cytotoxicity at 70.5 h was -2.11%.

For `O=C(c1cc(-n2cccn2)ccn1)N1CCOc2ncccc21`, the cytotoxicity at 70.5 h was -1.03%.

(Values after ChEMBL document CHEMBL3507680, “University of Dundee, Gates Library screen for HepG2 cell viability”.)
